Measured values reported in patent publication US20140328940A1, “MODULATION OF AXON DEGENERATION” (Genentech, Inc., priority 2009, published 2014).
Entries after “also recorded” stand apart in the source; their conditions may differ.

Columns and labels:
DRGs = experiment: anti-NGF antibody (NGF withdrawal) screen for inhibitors of axon degeneration in DRG explants; assay type: cell-based, mouse; conditions: inhibitor 100 μM or 10 μM added 1 hour before 25 μg/ml anti-NGF; 20 hours; actin stain
Procedure: The anti-NGF antibody model described above in Example 1 was used in a screen for inhibitors of neuron or axon degeneration. A library of more than 400 small molecules (Tocris Bioscience) was tested to see which, if any, modulate degeneration observed in the presence of anti-NGF antibodies.
Mouse E13.5 embryos were dissected and placed into L15 medium (Invitrogen). The spinal cord was dissected out from the embryos with DRGs attached. The spinal cords with DRGs attached were placed into L15 medium+5% goat serum (Gibco) on ice. The DRGs were removed using a tungsten needle and the remaining spinal cord was disposed of. Eight well slides were filled with N3-F12 solution (23 ml Ham's F12, 1 ml N3 supplement, and 1 ml 1 M glucose) to which was added 25 ng/ml NGF (Roche). (N3 supplement was made by dilution of N3 100× concentrate, which was made by mixing the following ingredients, in the following order: 5.0 ml Hank's buffered saline solution (HBSS; Ca, Mg free; Invitrogen), 1.0 ml bovine serum albumin (10 mg/ml in HBSS=150 μm), 2.0 ml Transferrin (T1147-1G, human, 100 mg/ml in HBSS=1.1 mM), 1.0 ml sodium selenite (S9133-1MG, 0.01 mg/ml in HBSS 58 μM), 0.4 ml putrescine dihydrochloride (P5780-5G, 80 mg/ml in HBSS=500 mM), 0.2 ml progesterone (P8783-5G, 0.125 mg/ml in absolute ethanol=400 μM), 0.02 ml corticosterone (C2505-500MG, 2 mg/ml in absolute ethanol=5.8 mM), 0.1 ml triiodothyonine, sodium salt (T6397-100MG, 0.2 mg/ml in 0.01 N NaOH=300 μM), 0.4 ml insulin (16634-250MG, bovine pancreas, 241 U/mg, 25 mg/ml in 20 mM HCl=4.4 mM), for a total volume of 10.02 ml (can be stored at −20° C.). An N3 supplement stock was made by combining the following: 10 ml Pen/Strep (100×, Gibco), 10 ml glutamine (200 mM, Gibco), 10 ml MEM vitamins (100×, Gibco), 10 ml N3 concentrate (100×, see above), for a total volume of 40 ml. The mixture was filter sterilized using a 0.22 μm filter, and 1-2 ml aliquots were stored at −20° C.).
The DRGs were sectioned into halves and placed in the center of each well of an 8-chamber slide (BD Biocoat PDL/Laminin coated glass, Becton Dickinson). The DRGs were permitted to attach to the slide at room temperature for 5-10 minutes, followed by an overnight incubation at 37° C. Inhibitors of choice were added at a concentration of 100 μM (top row) or 10 μM (bottom row) 1 hour before adding anti NGF antibodies. The anti-NGF antibodies were added to the right half of the slide (4 wells) at a concentration of 25 μg/ml. After incubation for 20 hours at 37° C., the slides were fixed with 30% sucrose/8% paraformaldehyde (PFA) by adding 250 μl of the fix solution directly to the 250 μl of culture medium. (To make the 30% sucrose/8% PFA solution, the following ingredients were added to a 600 ml beaker including a stir bar: 250 ml 16% PFA (cat#15710-S, Electron Microscopy Sciences), 50 ml 10×PBS pH 7.4, and 150 g sucrose. The solution was mixed under low heat until dissolved, and then 6-8 drops of 1 M NaOH were added to bring the pH to 7.4. The volume was then brought to 500 ml with water in a graduated cylinder. The solution was mixed well, placed in aliquots, and frozen.) The s ides were fixed for 30 minutes, followed by washing once with PBS. All cells were labeled with an actin stain (Alexa-568 conjugated phalloidin; 1:40; Invitrogen), a membrane dye (DiO; 1:200; Invitrogen), and a DNA stain (Hoechst 33258; 1:10,000; Invitrogen) in 0.1% Triton and 1% goat serum for 2 hours at room temperature. […]

[1] = test system: cerebellar granule neurons (CGNs); experiment: serum deprivation/KCl reduction degeneration of cerebellar granule neurons; assay type: cell-based, mouse; conditions: 5 μM; 5 mM KCl, 24 hours
[2] = test system: DRG neurons (axon vs. cell body compartment); experiment: Campenot chamber local axon degeneration (anti-NGF in axon compartment); assay type: cell-based, mouse
Procedure: Teflon dividers (Tyler Research) were cleaned by washing in water and wiping them clean of any residual grease. Dividers were then soaked in Nochromix (Godax Laboratories)/sulfuric acid overnight, rinsed five times in distilled and autoclaved water (SQ water), boiled for 30 minutes, and then air-dried before use
Mouse laminin (5 μg/ml in sterile filtered water; Invitrogen) was added to PDL coated 35 mm dishes (BD Biosciences) and they were incubated for 1 hour at 37° C., followed by two rinses in SQ water. The dishes were vacuum-dried and then air-dried in a laminar flow hood for 15 minutes. Prepared dishes were then scored with a pin rake (Tyler Research). […] High vacuum grease (VWR) was added to each Teflon divider under a dissection scope. The laminin coated PDL dishes were inverted and dropped onto the Teflon divider, with additional pressure added by use of a toothpick in the non-track-containing regions. Dishes were incubated for 1 hour at 37° C. Five hundred microliters of NBM+MC (50 ng/ml NGF) solution was added to each of the side compartments, and a grease barrier was added in front of the center cell slot.
Free E13.5 spinal cords were dissected from mouse embryos and placed into NBM+MC (25 ng/ml NGF) solution. DRGs were detached from the spinal cord with a tungsten needle. An NBM+MC-lubricated P200 pipette was used to move DRGs into a 1.5 ml tube. DRGs were pelleted with a tabletop centrifuge for 30 seconds. The supernate was discarded and 0.05% Trypsin/EDTA (cold) was added. The pellet was resolubilized with a pipette and incubated at 37° C. for 15 minutes with constant agitation (650 RPM). The sample was again centrifuged and the supernate discarded. The pellet was resuspended in warm NBM+MC (50 ng/ml NGF) solution and triturated with a flamed glass pipette 20 times, followed by trituration with a fire-bored glass pipette another 20 times. The samples were again centrifuged and the resulting pellets were resuspended in 0.5 ml NBM+MC (50 ng/ml NGF) solution. The cells were diluted to a final concentration of 2.5×10^6 cells/ml. The cell suspensions were loaded into a 1 ml syringe with a 22 gauge needle. The center slot of the Campenot divider was filled using the syringe (to a volume of at least 50 μl). The Campenot chamber was incubated overnight at 37° C. 2.5 ml NGF+MC (50 ng/ml NGF) solution was added to the center compartment and the grease gate was removed. The outer medium (cell body compartment) was replaced after three days with 2.5 ml NBM+MC medium (with 25 ng/ml NGF). After five days in culture, one distal compartment was washed three times with warmed NBM+MC (no NGF) solution. After the third wash, 500 μl NBM+MC (no NGF) solution was added to the axon compartment in combination with either 0.5% DMSO or an inhibitor. The cell body compartment was replaced with 2.5 ml NBM+MC medium (with 25 ng/ml NGF) containing either 0.5% DMSO or inhibitor.
After 28 hours of anti-NGF antibody treatment, 8% PFA/30% sucrose solution (see above) was added directly to the culture medium at a 1:1 dilution and incubated for 30 minutes. The Teflon divider was removed after the first 15 minutes of addition. The system was washed once with 2.5 ml PBS prior to immunostaining. Neurons were blocked in 5% BSA/0.2% triton in PBS for 30 minutes. The primary antibody Tuj1 (Covance) was added to a final dilution of 1:1000 in PBS containing 2% BSA and incubated overnight at 4° C. The dish was washed once with PBS. […] The dish was washed twice with PBS, and a 22×22 mm coverslip (VWR) was added with 350 μl of fluoromount G (Electron Microscopy Sciences). The neurons were visualized by use of a fluorescence microscope.
As described above, E13.5 DRGs were isolated and grown for 5 days in a Campenot chamber.

CaMKK = CaMKK activity after ionomycin stimulation, transfected HeLa cells; published source; read-out: Cellular IC50; cited from earlier work
p38 MAPK = conditions: LPS-induced TNF-alpha production, human monocytes; published source; read-out: Cellular IC50; cited from earlier work

## O=C(O)c1ccc2c3c1cccc3c(=O)n1c3ccccc3nc21 [STO-609]
DRGs
  Comments (observations on compounds found to protect against neurodegeneration): Partial
[1]
  protection of cerebellar granule neurons from serum deprivation/KCl reduction: protect
[2]; inhibitor 15 μM in axon compartment
  Axon Compartment (protection of NGF-deprived axons): Yes (1)
[2]; inhibitor 15 μM in cell body compartment
  Cell Body Compartment (protection of NGF-deprived axons): No (1)
CaMKK
  IC50: 3000 nM

## COc1nccc(-c2c(-c3ccc(F)cc3)ncn2C2CCC(O)CC2)n1 (centres unmarked) [SB239063]
[1]
  protection of cerebellar granule neurons from serum deprivation/KCl reduction: protect
p38 MAPK
  IC50: 350 nM
[2]; 30 μM SB415, 15 μM Act D in cell body compartment, 10 μM AG555, 30 μM SB239 in axon compartment
  formation of varicosities in locally NGF-deprived axons: fewer varicosities
[2]; inhibitor 5 μM in axon compartment
  Axon Compartment (protection of NGF-deprived axons): Yes (1)
[2]; inhibitor 5 μM in cell body compartment
  Cell Body Compartment (protection of NGF-deprived axons): No (1)
[2]; inhibitor 30 μM in axon compartment, anti-NGF on axons 28 hours, number in parentheses not explained
  Axon Compartment (protection of NGF-deprived axons): Yes (3)
[2]; inhibitor 30 μM in axon compartment, anti-NGF on axons 28 hours, number in parentheses not explained, listed as SB239
  Axon Compartment (protection of NGF-deprived axons): did not degenerate; also recorded: protected from local degeneration
[2]; inhibitor 30 μM in cell body compartment, anti-NGF on axons 28 hours, number in parentheses not explained
  Cell Body Compartment (protection of NGF-deprived axons): No (3)
[2]; inhibitor 30 μM in cell body compartment, anti-NGF on axons 28 hours, number in parentheses not explained, listed as SB239
  Cell Body Compartment (protection of NGF-deprived axons): failed to prevent degeneration
